Results: patent EP2052721A1, “Use of carnosol for cartilage repair” (DSM IP Assets B.V., priority 2007, dated 2009)
Entries after “also recorded” stand apart in the source; their conditions may differ. Like-named read-outs stand apart in the source and are kept apart here.

Columns and labels:
[1] = system: Aggrecan; test: Anabolic gene expression in normal human primary chondrocytes, quantitative real-time PCR (aggrecan); format: cell-based; conditions: carnosol at 1 µmol/L; for activity at 1 µM: Chondrocyte, normal human chondrocytes (knee), differentiation medium
Method: (§1) Influence of carnosol on the expression of genes involved in the build-up and break-down of cartilage. Carnosol of >= 95% purity prepared as disclosed in example 1 was used.
(§2) The effect of carnosol on the expression of human collagen, aggrecan and MMP genes was measured in vitro in normal human chondrocytes (derived from knee). Control experiments without carnosol were done concomitantly to compare the expression of these genes or proteins to that in un-stimulated cells. The effect of carnosol (at 1 µmol/L) on the expression of anabolic genes (see Table B) was measured in normal human chondrocytes obtained from the knee of healthy donors (HNAC-kn, Cambrex, #CC2250). These primary chondrocytes were passaged in vitro not more than 4 times, before being used for experiments. Cells were cultured in differentiation medium (Cambrex, #CC.3225) for 5 - 10 days. Total RNA was extracted from cultured cells and reverse-transcribed; expression levels of distinct genes were determined by quantitative real-time PCR as detailed by Richard et al. Mol. Nutr. Food Res. 49, 431-442, (2005).
(§3) Effect of carnosol on anabolic gene expression in normal human primary chondrocytes Numbers indicate the level of gene expression (in % of control-treated cells)

[2] = system: Collagen II; test: Anabolic gene expression in normal human primary chondrocytes, quantitative real-time PCR (collagen II); format: cell-based; conditions: carnosol at 1 µmol/L; for activity at 1 µM: Chondrocyte, normal human chondrocytes (knee), differentiation medium
Method: as §1, §2, §3

[3] = system: Collagen I; test: Anabolic gene expression in normal human primary chondrocytes, quantitative real-time PCR (collagen I); format: cell-based; conditions: carnosol at 1 µmol/L; for activity at 1 µM: Chondrocyte, normal human chondrocytes (knee), differentiation medium
Method: as §1, §2, §3

[4] = system: SOX-9; test: Anabolic gene expression in normal human primary chondrocytes, quantitative real-time PCR (SOX-9); format: cell-based; conditions: carnosol at 1 µmol/L
Method: as §1, §2, §3

[5] = system: SOX-5; test: Anabolic gene expression in normal human primary chondrocytes, quantitative real-time PCR (SOX-5); format: cell-based; conditions: carnosol at 1 µmol/L; for activity at 1 µM: Chondrocyte, normal human chondrocytes (knee), differentiation medium
Method: as §1, §2, §3

[6] = system: Collagen II; test: Cellular collagen II production in chondrocytes, ELISA; format: cell-based, human; conditions: 20 µmol/L carnosol; for Effect of carnosol on protein expression: 10 days of culture, collagen II, result in words
Method: The increased build-up of the ECM has been directly shown by measuring the production of collagen II. To this aim, chondrocytes were cultured in differentiation medium containing 20 µmol/L carnosol for 10 days. Cellular collagen II was then quantified by enzyme linked immunosorbent assay (ELISA). […]

[7] = normal human chondrocytes, result in words

Q: For `CC(C)c1cc2c(c(O)c1O)[C@@]13CCCC(C)(C)[C@@H]1C[C@@H]2OC3=O` [Carnosol, 2H-9,4a-(Epoxymethano)phenanthren-12-one], which activity at 1 µM ([1]; 120 h, 5 days culture, read-out: level of gene expression, Aggrecan, 5 days culture) is on record?
A: The activity at 1 µM was 139%.

Q: What about the activity at 1 µM ([1]; 240 h, 10 days culture, read-out: level of gene expression, Aggrecan, 10 days culture) of the same compound?
A: The activity at 1 µM was 97%.

Q: What about the “effect of carnosol on gene expression, Aggrecan” value [1, 7] of the same compound?
A: The value was “substantially increased”.

Q: What about the activity at 1 µM ([2]; 120 h, 5 days culture, read-out: level of gene expression, Collagen II, 5 days culture) of the same compound?
A: The activity at 1 µM was 128%.

Q: What about the activity at 1 µM ([2]; 240 h, 10 days culture, read-out: level of gene expression, Collagen II, 10 days culture) of the same compound?
A: The activity at 1 µM was 189%.

Q: What about the “effect of carnosol on gene expression, Collagen II” value [2, 7] of the same compound?
A: Its value is “substantially increased”.

Q: What about the activity at 1 µM ([3]; 120 h, 5 days culture, read-out: level of gene expression, Collagen I, 5 days culture) of the same compound?
A: The activity at 1 µM was 207%.

Q: What about the activity at 1 µM ([3]; 240 h, 10 days culture, read-out: level of gene expression, Collagen I, 10 days culture) of the same compound?
A: The activity at 1 µM was 98%.

Q: And the “effect of carnosol on gene expression, Collagen I” value [3, 7]?
A: Its value is “Increased”.

Q: And the mrna remaining at 1 µM ([4]; Chondrocyte, 120 h, normal human chondrocytes (knee), differentiation medium, 5 days culture, read-out: level of gene expression, SOX-9, 5 days culture)?
A: Its mrna remaining at 1 µM is 112%.

Q: What about the SOX-9 gene expression, % of control at 1 µM ([4]; Chondrocyte, 240 h, normal human chondrocytes (knee), differentiation medium, 10 days culture, read-out: level of gene expression, SOX-9, 10 days culture) of the same compound?
A: The SOX-9 gene expression, % of control at 1 µM was 93%.

Q: And the “effect of carnosol on gene expression, SOX-9” value [4, 7]?
A: The value was “enhanced; also recorded: Increased”.

Q: And the activity at 1 µM ([5]; 120 h, 5 days culture, read-out: level of gene expression, SOX-5, 5 days culture)?
A: Its activity at 1 µM is 85%.

Q: What about the activity at 1 µM ([5]; 240 h, 10 days culture, read-out: level of gene expression, SOX-5, 10 days culture) of the same compound?
A: Its activity at 1 µM is 126%.

Q: What about the “effect of carnosol on gene expression, SOX-5” value [5, 7] of the same compound?
A: Its value is “enhanced; also recorded: Increased”.

Q: And the “Effect of carnosol on protein expression” value [6]?
A: The value was “Increased”.

Q: And the “Effect of carnosol on protein expression” value ([6]; listed as carnosol)?
A: The value was “significantly increased”.

Q: What about the activity at 20 µM ([6]; Homo sapiens, Chondrocyte, 240 h, 10 days of culture in differentiation medium, cellular collagen II by ELISA, vehicle = 100) of the same compound?
A: The activity at 20 µM was 129%.
